{
  "source": "patent US5478723A",
  "about": "“Method and apparatus for determining the role of cytochrome P450 and related enzymes in the metabolism of drugs and other chemicals” (priority 1993, dated 1995)",
  "key": {"CYP2D6 enzyme": {"tested_on": "CYP2D6 enzyme", "settings": "background or known; cited from earlier work"}, "CYP2CMp": {"tested_on": "CYP2CMp", "settings": "in vivo; cited from earlier work"}, "liver": {"tested_on": "liver", "settings": "in vivo; cited from earlier work"}, "CYP1A2 enzyme": {"tested_on": "CYP1A2 enzyme", "settings": "known; cited from earlier work"}, "cytochrome P450": {"tested_on": "cytochrome P450", "settings": "in vivo; cited from earlier work"}, "CYP2A6 enzyme": {"tested_on": "CYP2A6 enzyme", "settings": "cited from earlier work"}, "CYP2D6": {"tested_on": "CYP2D6", "settings": "cited from earlier work"}, "CYP3A enzymes": {"tested_on": "CYP3A enzymes", "settings": "cited from earlier work"}, "labor at term [1]": {"tested_on": "labor at term", "settings": "cited from earlier work"}, "labor at term [2]": {"tested_on": "labor at term", "experiment": "Clinical trials of sparteine for inducing labor at term", "assay_type": "in vivo, human", "settings": "of all Caucasians; expected from CYP2D6 deficiency", "method": "The drug was not recommended for clinical use because these side effects were unpredictable and occurred at doses of […], which were well tolerated by other patients."}, "[3]": {"settings": "administered with ketoconazole or erythromycin; cited from earlier work"}},
  "note": "Entries after “also recorded” stand apart in the source; their conditions may differ.",
  "data": [
    {"smiles": "COc1ccc2c(c1)[C@]13CCCC[C@@H]1[C@H](C2)N(C)CC3", "note": "(stereo in doubt) [dextromethorphan]", "values": [
      {"measurement": "enzyme which metabolizes the drug", "setting": "CYP2D6 enzyme", "result": "metabolized by the CYP2D6 enzyme"}
    ]},
    {"smiles": "CCC1(c2ccccc2)NC(=O)N(C)C1=O", "note": "(stereo not drawn) [Mephenytoin]", "values": [
      {"measurement": "enzyme which metabolizes the drug", "setting": "CYP2CMp", "result": "metabolized by CYP2CMp"}
    ]},
    {"smiles": "CC[C@@]1(c2ccccc2)NC(=O)N(C)C1=O", "note": "[S-mephenytoin]", "values": [
      {"measurement": "poor metabolizers among Caucasians", "setting": "CYP2CMp", "result": "less than 5%"},
      {"measurement": "poor metabolizers among Japanese subjects", "setting": "CYP2CMp", "result": "about 20%"}
    ]},
    {"smiles": "CC(=O)Nc1ccc(O)cc1", "note": "[acetaminophen]", "values": [
      {"measurement": "origin of liver toxicity", "setting": "liver", "result": "due to a toxic metabolite that is generated by cytochrome P450"}
    ]},
    {"smiles": "Cn1c(=O)c2c(ncn2C)n(C)c1=O", "note": "[caffeine]", "values": [
      {"measurement": "enzyme which metabolizes the drug", "setting": "CYP1A2 enzyme", "result": "metabolized by the CYP1A2 enzyme"}
    ]},
    {"smiles": "CN/C(=N/CCSCc1nc[nH]c1C)NC#N", "note": "[cimetidine]", "values": [
      {"measurement": "effect on cytochrome P450 activity", "setting": "cytochrome P450", "result": "depresses P450 activity"}
    ]},
    {"smiles": "O=c1ccc2ccccc2o1", "note": "[coumarin]", "values": [
      {"measurement": "enzyme which metabolizes the drug", "setting": "CYP2A6 enzyme", "result": "metabolized by the CYP2A6 enzyme"}
    ]},
    {"smiles": "N=C(N)N1CCc2ccccc2C1", "note": "[debrisoquine]", "values": [
      {"measurement": "poor metabolizers among Caucasians", "setting": "CYP2D6; Caucasians", "result": "5-10%"},
      {"measurement": "enzyme which metabolizes the drug", "setting": "CYP2D6; in vivo", "result": "metabolized by CYP2D6"}
    ]},
    {"smiles": "CC(=O)N1CCN(c2ccc(OCC3COC(Cn4ccnc4)(c4ccc(Cl)cc4Cl)O3)cc2)CC1", "note": "(stereo not drawn) [ketoconazole]", "values": [
      {"measurement": "inhibition of CYP3A enzymes", "setting": "CYP3A enzymes", "result": "potent inhibitors of the CYP3A enzymes"}
    ]},
    {"smiles": "CCC1(c2ccccc2)C(=O)NC(=O)NC1=O", "note": "[phenobarbital]", "values": [
      {"measurement": "effect on cytochrome P450 activity", "setting": "cytochrome P450", "result": "increase cytochrome P450 activity"},
      {"measurement": "effect on metabolism of contraceptive steroids", "setting": "cytochrome P450", "result": "increased rate of metabolism of contraceptive steroids"}
    ]},
    {"smiles": "CO[C@H]1/C=C/O[C@@]2(C)Oc3c(C)c(O)c4c(O)c(c(/C=N/N5CCN(C)CC5)c(O)c4c3C2=O)NC(=O)/C(C)=C\\C=C\\[C@H](C)[C@H](O)[C@@H](C)[C@@H](O)[C@@H](C)[C@H](OC(C)=O)[C@@H]1C", "note": "[rifampin]", "values": [
      {"measurement": "effect on cytochrome P450 activity", "setting": "cytochrome P450", "result": "increase cytochrome P450 activity"},
      {"measurement": "effect on metabolism of contraceptive steroids", "setting": "cytochrome P450", "result": "increased rate of metabolism of contraceptive steroids"}
    ]},
    {"smiles": "C1CCN2C[C@@H]3C[C@@H](CN4CCCC[C@@H]34)[C@H]2C1", "note": "[sparteine]", "values": [
      {"measurement": "potency for inducing labor at term", "setting": "labor at term [1]; clinical trials, United States, late 1950's", "result": "as potent as oxytocin"},
      {"measurement": "patients with dramatically increased duration and intensity of action", "setting": "labor at term [1]; of all patients tested", "result": "about 7%"},
      {"measurement": "patients with exaggerated response", "setting": "labor at term [1]; patients administered during clinical trials", "result": 7, "unit": "%"},
      {"measurement": "side effects (exaggerated response)", "setting": "labor at term [1]; some patients", "result": "prolonged uterine contraction and abnormally rapid labor; also recorded: caused death of the fetus"},
      {"measurement": "expected poor metabolizers", "setting": "labor at term [2]", "result": "5-10%"}
    ]},
    {"smiles": "CC(C)(C)c1ccc(C(O)CCCN2CCC(C(O)(c3ccccc3)c3ccccc3)CC2)cc1", "note": "(stereo not drawn) [terfenadine]", "values": [
      {"measurement": "cardiac adverse reaction", "setting": "[3]", "result": "Torsades de Points"}
    ]}
  ]
}
